The results in this text go back to ChEMBL document CHEMBL3784995, “Inhibitors of HIV-1 maturation: Development of structure-activity relationship for C-28 amides based on C-3 benzoic acid-modified triterpenoids” (Bioorg Med Chem Lett, 2016).

One may read the bioavailability as the share of a dose that reaches the circulation, judged against a reference dose that is usually intravenous. Higher therefore signals much systemic uptake. As a reminder, the EC50 is the concentration giving half of the maximal effect. Read a high EC50 as a need for much substance. What is called half-life is the time needed for the level to fall by half in the phase considered. A word on the AUC(0-t): it is the area under the concentration-time curve up to a stated or last time point. Read a low AUC(0-t) as low exposure. What is called AUC is the area under the concentration-time curve, a measure of exposure. The low end stands for low exposure, the high end for high exposure. The Cmax is the maximum level reached in the sampled fluid or tissue. What is called clearance is the volume of plasma or blood freed of the substance per unit of time. As usually defined, the CC50 is the concentration giving 50% cytotoxicity. Higher therefore signals lower toxicity to the cells. For orientation: Vd means a proportionality between amount in the body and measured concentration, not a real space. Low readings indicate confinement near the circulation, high ones extensive tissue distribution.

Data set [1] can be described thus: Bioavailability in cannula implanted rat at 5 mg/kg administered through oral gavage after 24 hrs by LC-MS/MS analysis. The data set is classed as ADME, organism-based. Conditions: in vivo.
In data set [2] the test system is Human immunodeficiency virus 1. Nature of the data set: Antiviral activity against wild type HIV1 NL4-3 infected in human MT2 cells after 4 to 5 days by dual-luciferase reporter gene assay. The class given is functional, organism-based. Conditions: Human immunodeficiency virus 1, NL4-3, MT2. In general terms: Reporter assays use an easily measured gene product as a stand-in for the process of interest.

For data set [3], the system named is Human immunodeficiency virus 1. Nature of the data set: Antiviral activity against wild type HIV1 NL4-3 habouring Gag protein V370A mutant infected in human MT2 cells after 4 to 5 days by dual-luciferase reporter gene assay. Conditions: Human immunodeficiency virus 1, NL4-3, MT2. The class given is functional, organism-based.
The subject of data set [4] is Human immunodeficiency virus 1. The data set is described as follows: Antiviral activity against wild type HIV1 NL4-3 habouring Gag protein delta V370 infected in human MT2 cells after 4 to 5 days by dual-luciferase reporter gene assay. Conditions: Human immunodeficiency virus 1, NL4-3, MT2. The class given is functional, organism-based.
Data set [5] has as its system Human immunodeficiency virus 1. The data set is described as follows: Antiviral activity against wild type BVM-resistant HIV1 NL4-3 habouring Gag protein V370M mutant infected in human MT2 cells after 4 to 5 days by dual-luciferase reporter gene assay. Conditions: Human immunodeficiency virus 1, NL4-3, MT2. The class given is functional, organism-based.
Data set [6] has as its system Human immunodeficiency virus 1. Nature of the data set: Antiviral activity against wild type BVM-resistant HIV1 NL4-3 habouring Gag protein T371A mutant infected in human MT2 cells after 4 to 5 days by dual-luciferase reporter gene assay. As to conditions: Human immunodeficiency virus 1, NL4-3, MT2. The data set is classed as functional, organism-based.
The test system of data set [7] is Human immunodeficiency virus 1. Nature of the data set: Antiviral activity against wild type BVM-resistant HIV1 NL4-3 habouring Gag protein delta T371 infected in human MT2 cells after 4 to 5 days by dual-luciferase reporter gene assay. The data set is classed as functional, organism-based. As to conditions: Human immunodeficiency virus 1, NL4-3, MT2.
Data set [8] in a line: Metabolic stability in human liver microsomes at 0.5 uM by LC-MS/MS analysis in presence of NADPH. The class given is ADME. (In general: Liver microsomes are a subcellular fraction often used to study metabolism.)
Data set [9] can be described thus: Metabolic stability in rat liver microsomes at 0.5 uM by LC-MS/MS analysis in presence of NADPH. The data set is classed as ADME.
Data set [10] is described as follows: AUC (0 to 6 hrs) in cannula implanted rat at 5 mg/kg administered through oral gavage after 24 hrs by LC-MS/MS analysis. The class given is ADME, organism-based. Also noted: dose 5 mg/kg, time < 6 hr, route oral. Conditions: in vivo.
Data set [11] can be described thus: (§1) Total AUC in cannula implanted rat at 5 mg/kg administered through oral gavage after 24 hrs by LC-MS/MS analysis. The class given is ADME, organism-based. Details: dose 5 mg/kg, time AUCmax, route oral. Conditions: in vivo.
Data set [12] in a line: Cmax in cannula implanted rat at 5 mg/kg administered through oral gavage after 24 hrs by LC-MS/MS analysis. The class given is ADME, organism-based. Also noted: dose 5 mg/kg, route oral. As to conditions: in vivo.
The nature of data set [13]: Plasma concentration in cannula implanted rat at 5 mg/kg administered through oral gavage after 24 hrs by LC-MS/MS analysis. The class given is ADME, organism-based.
Data set [14] is described as follows: Plasma clearance in cannula implanted rat at 1 mg/kg, iv by LC-MS/MS analysis. The class given is ADME, organism-based.
Data set [15] is described as follows: Cytotoxicity against human MT2 cells. The class given is cell-based.
A further data set is described as follows: in vivo. As to conditions: rat, iv, 1 mg/kg.
The subject of another data set is Rattus norvegicus. The description is as §1. The class given is ADME, organism-based. Details: dose 5 mg/kg, time AUCmax, route oral. As to conditions: in vivo, 24 h.

Description for in vivo: Volume of distribution at steady state in cannula implanted rat at 1 mg/kg, iv by LC-MS/MS analysis

Turning to `C=C(C)[C@@H]1CC[C@]2(C(=O)NCCc3ccccn3)CC[C@]3(C)[C@H](CC[C@@H]4[C@@]5(C)CC=C(c6ccc(C(=O)O)cc6)C(C)(C)[C@@H]5CC[C@]43C)[C@@H]12`, the bioavailability in [1] was 3%. Also, the EC50 in data set [2] amounted to 15 nM; in [3] it was 19 nM; in data set [4], 415 nM; in [5] it was 61 nM; in [6] it was 19 nM; in data set [7] it was 38 nM. Further, the half-life at 0.5 µM in data set [8] was 0.717 h; in data set [9], above 2 h. In addition, the area under the curve AUC(0-t) at 6 h in [10] is 0.721 µM·h. In data set [11], the AUC at 24 h came out at 1.23 µM·h. This molecule yielded a peak concentration (Cmax) in data set [12] of 172 nM. This molecule displayed a concentration at 24 h in data set [13] of 5 nM. In addition, the clearance in [14] was determined as 3.2 mL/min/kg. Moreover, the CC50 in data set [15] turned out to be 8000 nM. The molecule also registered a distribution volume (Vd) in the data set “in vivo” of 1.1 L/kg.

With `C=C(C)[C@@H]1CC[C@]2(C(=O)NCCN(C)C)CC[C@]3(C)[C@H](CC[C@@H]4[C@@]5(C)CC=C(c6ccc(C(=O)O)cc6)C(C)(C)[C@@H]5CC[C@]43C)[C@@H]12`, the bioavailability in [1] worked out at 17%. In addition, the EC50 in data set [4] amounted to 31 nM; in [5], 10 nM; in data set [6], 3 nM; in data set [7], 3 nM. In addition, the half-life at 0.5 µM in data set [8] and in data set [9] was above 2 h in each case. The molecule also showed an exposure AUC(0-t) at 6 h in data set [10] of 1.62 µM·h. This molecule returned an area under the curve (AUC) with Rattus norvegicus of 3.814 µM·h. The molecule further showed a maximum concentration (Cmax) in data set [12] of 396 nM. The same molecule had a clearance in data set [14] of 6.1 mL/min/kg. This molecule also returned a CC50 in [15] of 3000 nM. In “in vivo”, this molecule gave a Vd of 2.3 L/kg.
